Laboratory results published in PubChem BioAssay AID330 (DTP/NCI, 2004).
Where “and” joins values, the source holds several entries; their conditions need not be identical. Equal values may be shown once. Inconclusive results and toxic doses are left out. Rule for the calls: active = survival T/C of 150% or more; inactive = T/C below 125% in these data.

System: P388 leukemia ip, CD2F1 mice, survival T/C
Test: NCI In Vivo Anticancer Drug Screen. Data for tumor model P388 Leukemia (intraperitoneal) in CD2F1 (CDF1) mice
Conditions: endpoint: median survival time, higher = longer survival
Method in brief: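 Mice carrying the transplanted tumor received test compound or vehicle. Survival was recorded in each group, and the value is the treated-group measurement divided by that of the vehicle-treated control group.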

[1] = dose: 50.0 mg/kg/injection, schedule: Q01DX005 (ip), vehicle: Klucel (hydroxypropylcellulose) (HPC)
[2] = dose: 100.0 mg/kg/injection, schedule: Q01DX005 (ip), vehicle: Klucel (hydroxypropylcellulose) (HPC)
[3] = dose: 200.0 mg/kg/injection, schedule: Q01DX005 (ip), vehicle: Klucel (hydroxypropylcellulose) (HPC)
[4] = dose: 50.0 mg/kg/injection, schedule: Q01DX005 (ip), vehicle: saline
[5] = dose: 100.0 mg/kg/injection, schedule: Q01DX005 (ip), vehicle: saline
[6] = dose: 50.0 mg/kg/injection, schedule: Q01DX009 (ip), vehicle: saline with Tween-80
[7] = dose: 100.0 mg/kg/injection, schedule: Q01DX009 (ip), vehicle: saline with Tween-80
[8] = dose: 12.5 mg/kg/injection, schedule: Q01DX009 (ip), vehicle: saline
[9] = dose: 25.0 mg/kg/injection, schedule: Q01DX009 (ip), vehicle: saline
[10] = dose: 6.25 mg/kg/injection, schedule: Q01DX009 (ip), vehicle: saline
[11] = dose: 200.0 mg/kg/injection, schedule: Q01DX009 (ip), vehicle: saline with Tween-80

Measured: T/C

CN(C)CCCOc1ccc(NC2=C(Cl)C(=O)C(Nc3ccc(OCCCN(C)C)cc3)=C(Cl)C2=O)cc1
inactive: dose: 6.25 mg/kg/injection, schedule: Q01DX005 (ip), vehicle: suspension in saline 101 % of control | dose: 12.5 mg/kg/injection, schedule: Q01DX005 (ip), vehicle: suspension in saline 101 % of control | dose: 25.0 mg/kg/injection, schedule: Q01DX005 (ip), vehicle: suspension in saline 103 % of control

CN=C=O
inactive: dose: 6.25 mg/kg/injection, schedule: Q01DX005 (ip), vehicle: water 99 % of control | dose: 12.5 mg/kg/injection, schedule: Q01DX005 (ip), vehicle: water 92 % of control | dose: 25.0 mg/kg/injection, schedule: Q01DX005 (ip), vehicle: water 98 % of control | dose: 50.0 mg/kg/injection, schedule: Q01DX005 (ip), vehicle: water 101 % of control | dose: 100.0 mg/kg/injection, schedule: Q01DX005 (ip), vehicle: water 108 % of control | dose: 200.0 mg/kg/injection, schedule: Q01DX005 (ip), vehicle: water 99 % of control

CC1CC(=O)N1C(=O)CCN=C=S (configuration not stated)
inactive: dose: 60.0 mg/kg/injection, schedule: Q01DX005 (ip), vehicle: saline with Tween-80 111 % of control | dose: 120.0 mg/kg/injection, schedule: Q01DX005 (ip), vehicle: saline with Tween-80 120 % of control | dose: 240.0 mg/kg/injection, schedule: Q01DX005 (ip), vehicle: saline with Tween-80 117 % of control

NCCCCC(C(=O)NC(Cc1ccc(O)cc1)C(=O)NN)N(C(=O)OCc1ccccc1)C(=O)OCc1ccccc1 (configuration not stated)
inactive: dose: 50.0 mg/kg/injection, schedule: Q01DX005 (ip), vehicle: saline + Tween-80 + alcohol 107 % of control | dose: 100.0 mg/kg/injection, schedule: Q01DX005 (ip), vehicle: saline + Tween-80 + alcohol 104 % of control | dose: 200.0 mg/kg/injection, schedule: Q01DX005 (ip), vehicle: saline + Tween-80 + alcohol 94 % of control

Cc1ccc(S(=O)(=O)NC(=O)O/N=C/c2ccco2)cc1
inactive: [1] 98 % of control | [2] 98 % of control | [3] 100 % of control

CC(=O)/C(=C\c1ccc(Cl)cc1)C(=O)CCN(C)C
inactive: [4] 112 % of control | [5] 118 % of control

CCCCCCCCC(O)C#CC(N)=O (configuration not stated)
inactive: dose: 100.0 mg/kg/injection, schedule: Q01DX001 (ip), vehicle: saline with Tween-80 99 % of control | dose: 200.0 mg/kg/injection, schedule: Q01DX001 (ip), vehicle: saline with Tween-80 90 % of control

CC(C)CC(NC(=O)OCC1c2ccccc2-c2ccccc21)C(=O)O (configuration not stated)
inactive: [1] 101 % of control | [2] 100 % of control

O=C1C(Cl)=C(n2c(=O)oc3ccccc32)C(=O)c2ccccc21
inactive: [6] 93 % of control | [7] 98 % of control

CC(=O)/C=C1/N(C)c2ccccc2C1(C)C
inactive: [1] 100 % of control | [2] 100 % of control | [3] 99 % of control

OCC1OC(Nc2ccccc2/C=N\O)C(O)C1O (configuration not stated)
inactive: [8] 98 % of control | [9] 107 % of control and 96 % of control | dose: 50.0 mg/kg/injection, schedule: Q01DX009 (ip), vehicle: saline 99 % of control and 115 % of control | dose: 100.0 mg/kg/injection, schedule: Q01DX009 (ip), vehicle: saline 98 % of control and 95 % of control

CC[n+]1ccc(/C=C\c2c(Cl)cccc2Cl)cc1
inactive: [10] 96 % of control | [8] 104 % of control | [9] 106 % of control

O=C(/C=C/c1ccccc1[N+](=O)[O-])c1ccccc1
inactive: dose: 50.0 mg/kg/injection, schedule: Q04DX003 (ip), vehicle: saline with Tween-80 99 % of control | dose: 100.0 mg/kg/injection, schedule: Q04DX003 (ip), vehicle: saline with Tween-80 101 % of control | dose: 200.0 mg/kg/injection, schedule: Q04DX003 (ip), vehicle: saline with Tween-80 101 % of control | dose: 400.0 mg/kg/injection, schedule: Q04DX003 (ip), vehicle: saline with Tween-80 108 % of control

CC(C)(C)OC(=O)NNCC(=O)OCc1ccccc1
inactive: dose: 12.5 mg/kg/injection, schedule: Q01DX009 (ip), vehicle: other 96 % of control | dose: 25.0 mg/kg/injection, schedule: Q01DX009 (ip), vehicle: other 103 % of control | dose: 50.0 mg/kg/injection, schedule: Q01DX009 (ip), vehicle: other 111 % of control | dose: 100.0 mg/kg/injection, schedule: Q01DX009 (ip), vehicle: other 101 % of control | dose: 200.0 mg/kg/injection, schedule: Q01DX009 (ip), vehicle: other 99 % of control

CC(C)(C)C(=O)Nc1c(Cl)cc(Br)cc1Br
inactive: dose: 50.0 mg/kg/injection, schedule: Q01DX009 (ip), vehicle: saline + alcohol 105 % of control | dose: 100.0 mg/kg/injection, schedule: Q01DX009 (ip), vehicle: saline + alcohol 101 % of control | dose: 200.0 mg/kg/injection, schedule: Q01DX009 (ip), vehicle: saline + alcohol 100 % of control

CN(C)C1CCC(NC2=CC(=O)C(NC3CCC(N(C)C)CC3)=CC2=O)CC1 (configuration not stated)
inactive: dose: 1.56 mg/kg/injection, schedule: Q01DX005 (ip), vehicle: distilled water + alcohol 95 % of control | dose: 3.12 mg/kg/injection, schedule: Q01DX005 (ip), vehicle: distilled water + alcohol 99 % of control | dose: 6.25 mg/kg/injection, schedule: Q01DX005 (ip), vehicle: distilled water + alcohol 100 % of control and 96 % of control

CCCCCCN(CCCCCC)C(C)C(=O)c1ccc2cc(Br)c3ccccc3c2c1 (configuration not stated)
inactive: dose: 50.0 mg/kg/injection, schedule: Q01DX005 (ip), vehicle: saline with Tween-80 91 % of control | dose: 100.0 mg/kg/injection, schedule: Q01DX005 (ip), vehicle: saline with Tween-80 94 % of control | dose: 200.0 mg/kg/injection, schedule: Q01DX005 (ip), vehicle: saline with Tween-80 94 % of control

O=C(/C=C\c1ccccc1)c1ccccc1
inactive: dose: 100.0 mg/kg/injection, schedule: Q04DX002 (ip), vehicle: saline 112 % of control | dose: 200.0 mg/kg/injection, schedule: Q04DX002 (ip), vehicle: saline 110 % of control | dose: 400.0 mg/kg/injection, schedule: Q04DX002 (ip), vehicle: saline 102 % of control

C[C@@]12C(=O)OC(=O)[C@]1(C)[C@H]1CC[C@@H]2O1
inactive: dose: 0.5 mg/kg/injection, schedule: Q01DX005 (ip), vehicle: acetone 105 % of control | dose: 62.5 micrograms/kg/injection, schedule: Q01DX005 (ip), vehicle: acetone 102 % of control | dose: 125.0 micrograms/kg/injection, schedule: Q01DX005 (ip), vehicle: acetone 107 % of control | dose: 250.0 micrograms/kg/injection, schedule: Q01DX005 (ip), vehicle: acetone 102 % of control | dose: 500.0 micrograms/kg/injection, schedule: Q01DX005 (ip), vehicle: acetone 102 % of control

CC1CCCC(C2CC3CCCCC3C(N)[N-]2)[N-]1.CC1CCCC(C2CC3CCCCC3C(N)[N-]2)[N-]1.O=[N+]([O-])O.[Cu+2] (configuration not stated)
inactive: dose: 100.0 mg/kg/injection, schedule: Q04DX002 (ip), vehicle: suspension in saline 105 % of control | dose: 200.0 mg/kg/injection, schedule: Q04DX002 (ip), vehicle: suspension in saline 112 % of control

N#Cc1nc(CC(=O)c2ccncc2)c(CC(=O)c2ccncc2)nc1C#N
inactive: dose: 60.0 mg/kg/injection, schedule: Q01DX005 (ip), vehicle: saline 109 % of control | dose: 120.0 mg/kg/injection, schedule: Q01DX005 (ip), vehicle: saline 106 % of control | dose: 240.0 mg/kg/injection, schedule: Q01DX005 (ip), vehicle: saline 97 % of control

CCS1=C(C(C)=O)C(=O)OC(C)C1 (configuration not stated)
inactive: [4] 100 % of control | [5] 100 % of control | dose: 200.0 mg/kg/injection, schedule: Q01DX005 (ip), vehicle: saline 106 % of control

C(=NCCCN=CC1CCCC[N-]1)C1CCCC[N-]1.[Cu+2].[O-][Cl+3]([O-])([O-])O (configuration not stated)
inactive: dose: 3.12 mg/kg/injection, schedule: Q01DX009 (ip), vehicle: saline with Tween-80 103 % of control | dose: 6.25 mg/kg/injection, schedule: Q01DX009 (ip), vehicle: saline with Tween-80 101 % of control | dose: 12.5 mg/kg/injection, schedule: Q01DX009 (ip), vehicle: saline with Tween-80 103 % of control and 112 % of control | dose: 25.0 mg/kg/injection, schedule: Q01DX009 (ip), vehicle: saline with Tween-80 103 % of control

O=C(CBr)Nc1c(Cl)cc(Br)cc1Br
inactive: [10] 113 % of control | [8] 95 % of control | [9] 98 % of control | [7] 104 % of control | [11] 113 % of control

CC(=O)CC(=O)CCCCCCC(=O)O
inactive: [6] 103 % of control | [7] 100 % of control | [11] 100 % of control
